Test systems include HOP-92; NCI-H226; DMS-114; LXFL 529; A549; SNB-78; SW-620; OVCAR-8; HOP-62; HL-60; HCT-15; MOLT-4; EKVX; OVCAR-5; SK-MEL-2; UACC-62; M14; CCRF-CEM; HCC 2998; DLD-1.
Holding throughout (assay): NCI-60 cell line screen, 48 h

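Growth conditions: 96-well plates. Treatment: test compound, 48 hours, 5 concentrations. Analysis: linear interpolation between bracketing concentrations; unreached endpoints set to highest concentration. GI50 is the concentration that inhibits growth by half.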 Active and inactive are the calls of the source. Cut-off read from the data, not from the text of the source: active = GI50 up to about 1.1 µM and inactive = higher.

Regarding `NC(=O)N/C=C1\C(=O)Oc2ccccc2C1=O`, the GI50 in the test with HOP-92 was 56.9 µM (inactive); in the test on NCI-H226, > 100 µM (inactive); with DMS-114 it was > 100 µM (inactive); with LXFL 529 it was > 100 µM (inactive); in the test on A549, 10 µM (inactive); with SNB-78 it was 43.2 µM (inactive). For the same compound, the GI50 with SW-620 is > 100 µM (inactive); in the test on OVCAR-8, > 100 µM (inactive); in the test on HOP-62, > 100 µM (inactive); in the test with HL-60, 53.8 µM (inactive); in the test on HCT-15, 48.5 µM; in the test on MOLT-4 it was > 100 µM (inactive). In addition, the GI50 is > 100 µM (inactive) in the test on EKVX; 35.3 µM (inactive) in the test on OVCAR-5; 40 µM (inactive) in the test on SK-MEL-2; 77.8 µM (inactive) in the test on UACC-62; 82.8 µM (inactive) in the test with M14; > 100 µM (inactive) in the test on CCRF-CEM. The GI50 with HCC 2998 and with DLD-1 was > 100 µM (inactive) each time.

The values above are taken from ChEMBL document CHEMBL1201862, “PubChem BioAssay data set” (2004).
